The species entered for assay [1] is Homo sapiens. Nature of the assay: Selectivity index, ratio of IC50 for His-human FABP3 to IC50 for human His-FABP4.
Assay [2] concerns the target T1, Fatty acid-binding protein, adipocyte (Homo sapiens, UniProt P15090). The experiment in a line: Displacement of 8-anilino-1-naphthalene-sulfonic acid from human His-FABP4 expressed in Escherichia coli BL21 (DE3) cells after 3 mins.
Target sequence in this assay (P15090 whole entry): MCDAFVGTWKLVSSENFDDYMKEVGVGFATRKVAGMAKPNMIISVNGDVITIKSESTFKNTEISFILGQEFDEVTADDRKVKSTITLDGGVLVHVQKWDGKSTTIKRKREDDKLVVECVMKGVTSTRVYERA
The nature of assay [3]: Displacement of 8-anilino-1-naphthalene-sulfonic acid from human FABP4 F16A mutant expressed in Escherichia coli BL21 (DE3) cells after 3 mins.
Assay [4] has as its target T1, Fatty acid-binding protein, adipocyte. Nature of the assay: Displacement of 8-anilino-1-naphthalene-sulfonic acid from human His-FABP4 expressed in Escherichia coli BL21 (DE3) cells after 3 mins relative to linoleic acid.
Target sequence in this assay (P15090 whole entry): as above
The species entered for assay [5] is Homo sapiens. Nature of the assay: Selectivity ratio of IC50 for human FABP4 F126A mutant to IC50 for human wild type FABP4.
Assay [6] addresses Fatty acid-binding protein, heart (Homo sapiens, UniProt P05413). The experiment in a line: Displacement of 8-anilino-1-naphthalene-sulfonic acid from human His-FABP3 expressed in Escherichia coli BL21 (DE3) cells after 3 mins relative to linoleic acid.
The species named for assay [7] is Homo sapiens. Nature of the assay: Selectivity ratio of IC50 for human FABP4 F106A mutant to IC50 for human wild type FABP4.
Assay [8] addresses T1, Fatty acid-binding protein, adipocyte. Nature of the assay: Displacement of 8-anilino-1-naphthalene-sulfonic acid from human His-FABP4 expressed in Escherichia coli BL21 (DE3) cells at 100 uM after 3 mins.
Target sequence in this assay (P15090 2-132 limits assumed): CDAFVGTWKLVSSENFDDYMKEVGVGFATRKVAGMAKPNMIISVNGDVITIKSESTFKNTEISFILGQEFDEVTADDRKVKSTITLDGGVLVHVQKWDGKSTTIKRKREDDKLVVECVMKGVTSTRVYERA
For assay [9], the system named is BL21-DE3. Nature of the assay: Displacement of 8-anilino-1-naphthalene-sulfonic acid from human FABP4 F16A mutant expressed in Escherichia coli BL21 (DE3) cells at 500 uM after 3 mins.
In assay [10] the test system is BL21-DE3. The experiment in a line: Displacement of 8-anilino-1-naphthalene-sulfonic acid from human FABP4 F16A mutant expressed in Escherichia coli BL21 (DE3) cells at 700 uM after 3 mins.

Structures are written as SMILES. pIC50: −log10 of the molar value. Some results are limits rather than exact numbers.

Chain of Fatty acid-binding protein, heart (P05413 whole entry): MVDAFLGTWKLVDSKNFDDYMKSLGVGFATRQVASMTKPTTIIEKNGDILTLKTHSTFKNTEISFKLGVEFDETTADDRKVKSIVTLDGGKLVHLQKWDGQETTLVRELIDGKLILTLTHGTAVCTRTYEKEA

For `O=C(O)CSCC(=O)NCc1c(Cl)cccc1Oc1ccccc1`, the Ratio IC50 came to 0.6 in the assay listed under Homo sapiens [1], 6.6 in the assay listed under Homo sapiens [5] and 3.4 in the assay listed under Homo sapiens [7]. For the same compound, the negative-log IC50 (pIC50) in assay [2] was 4.37; in assay [3] it was 4.12; in [4], 5.51; in assay [6], 5.72. The inhibition in [8] turned out to be 62.5%.
`O=C(O)CSCC(=O)NCc1ccccc1N1CCCCC1`: the Ratio IC50 in the assay listed under Homo sapiens [1] was determined as 1.5. The values for the pIC50 in assay [2], in assay [4] and in assay [6] were 4.25, 5.39 and 5.20, respectively. The same compound returned an inhibition in [8] of 58.7%.
Regarding `Cc1ccc(SC(CC(=O)c2ccc(C)cc2)C(=O)O)cc1` (stereo not drawn), in assay [2], the negative logarithm of the IC50 (pIC50) is less than 4.00. The compound also had an inhibition in assay [8] of 44.4%.
For `COC(=O)c1cc(OC)c(OC)cc1NC(=O)CSCC(=O)O` the same measures were less than 4.00 and 46.9%.
Consider `COc1ccc(-c2c(C(F)(F)F)nn(C)c2NC(=O)CSCC(=O)O)cc1`, for which the pIC50 in [2] is less than 4.00. Further, in [8], the inhibition turned out to be 20.1%.
In [2], `O=c1[nH]nc(SCCS(=O)(=O)c2ccc(Cl)cc2Cl)n1-c1ccc2c(c1)OCCO2` gave a pIC50 of less than 4.00. The inhibition in assay [8] stood at 37.1%.
Take `O=C(O)CSCC(=O)Nc1ccc(F)c(Cl)c1`: the Ratio IC50 in the assay filed under Homo sapiens [1] was greater than 99. Further, the pIC50 in assay [2] was 4.23; in assay [4], 5.36; in assay [6], less than 3.36. For the same compound, the inhibition in assay [8] is 56.2%.
For the compound `O=C(O)CSCC(=O)Nc1cc(Cl)cc(Cl)c1`, the figures for the Ratio IC50 in the assay filed under Homo sapiens [1], in the assay filed under Homo sapiens [5] and in the assay listed under Homo sapiens [7] were greater than 144, 11.1 and 1.3, respectively. The results for the negative logarithm of the IC50 (pIC50) in assay [2], in assay [4] and in [6] were 4.87, 6.00 and less than 3.84, respectively. The inhibition came to 50.7% in the assay on BL21-DE3 [9], 57% with BL21-DE3 [10] and 84.9% in assay [8].
In assay [8], `CCCCCCCC/C=C\CCCCCCCC(=O)O` came in with an inhibition of 66.8%.
On to `c1cc(CSc2nc3ccccc3[nH]2)nc(CSc2nc3ccccc3[nH]2)c1`, for which the pIC50 in [2] is less than 4.00. In assay [8], the inhibition came out at 47.7%.
Regarding `CCCCC/C=C\C/C=C\CCCCCCCC(=O)O`, the inhibition was determined as 36.9% in the assay with BL21-DE3 [9], 39% with BL21-DE3 [10] and 81.4% in assay [8].
Turning to `O=[N+]([O-])c1ccc(S(=O)(=O)c2ccccc2)cc1OS(=O)(=O)c1cc(Cl)cc(Cl)c1`, the negative-log IC50 (pIC50) in [2] is less than 4.00. Further, the inhibition in assay [8] was 40.7%.

By pIC50 is commonly meant −log10 of the IC50, conventionally taken in molar units. Lower therefore signals a large IC50. A word on the inhibition: it is the share of the control response that was lost under treatment. Read a high inhibition as strong suppression.

The record behind these values is ChEMBL document CHEMBL1155532 (Bioorg Med Chem Lett, 2010).
